Legend:
[1] = tested on: Johnson grass; test: Test D Johnson grass; format: in vivo, Sorghum halepense; conditions: Postemergence, 0 to 100 scale
[2] = tested on: Green foxtail; test: Test D green foxtail; format: in vivo; conditions: Postemergence, 0 to 100 scale, 0 no injury, 100 complete control
[3] = tested on: large crabgrass; test: Test D large crabgrass; format: in vivo, Digitaria sanguinalis; conditions: Postemergence, 0 to 100 scale
[4] = tested on: common groundsel; test: Test D common groundsel; format: in vivo, Senecio vulgaris; conditions: Postemergence, 0 to 100 scale
[5] = tested on: purple nutsedge; test: Test D purple nutsedge; format: in vivo, Cyperus rotundus; conditions: Postemergence, 0 to 100 scale
[6] = tested on: Green foxtail; test: Test D green foxtail; format: in vivo; conditions: Postemergence, 0 to 100 scale, 0 no injury, 100 complete control; remark: listed apart in the source
[7] = tested on: surinam grass; test: Test D surinam grass; format: in vivo, Brachiaria decumbens; conditions: Postemergence, 0 to 100 scale
[8] = tested on: bermuda-grass; test: Test D bermudagrass; format: in vivo, Cynodon dactylon; conditions: Postemergence, 0 to 100 scale
[9] = tested on: tall mallow; test: Test D tall mallow; format: in vivo, Malva sylvestris; conditions: Postemergence, 0 to 100 scale
[10] = tested on: Green foxtail; test: Test D green foxtail; format: in vivo; conditions: Postemergence, 0 to 100 scale, 0 no injury, 100 complete control; remark: listed apart in the source
[11] = tested on: guineagrass; test: Test D guineagrass; format: in vivo, Panicum maximum; conditions: Postemergence, 0 to 100 scale
[12] = tested on: goosegrass; test: Test D goosegrass; format: in vivo, Eleusine indica; conditions: Postemergence, 0 to 100 scale
[13] = tested on: Spanishneedles; test: Test D Spanishneedles; format: in vivo, Bidens bipinnata; conditions: Postemergence, 0 to 100 scale
[14] = tested on: dallisgrass; test: Test D dallisgrass; format: in vivo, Paspalum dilatatum; conditions: Postemergence, 0 to 100 scale
[15] = tested on: pitted morningglory; test: Test D pitted morningglory; format: in vivo, Ipomoea lacunosa; conditions: Postemergence, 0 to 100 scale
[16] = tested on: Green foxtail; test: Test D green foxtail; format: in vivo; conditions: Rate 250 g/ha; Postemergence; 0 to 100 scale
[17] = tested on: itchgrass; test: Test D itchgrass; format: in vivo, Rottboellia exaltata; conditions: Postemergence, 0 to 100 scale
[18] = Rate 16 g/ha, 0 no injury, 100 complete control
[19] = Rate 32 g/ha, 0 no injury, 100 complete control
[20] = Rate 64 g/ha, 0 no injury, 100 complete control
[21] = Rate 125 g/ha, 0 no injury, 100 complete control

CC(C)N(C(=O)n1oc(=O)n(CC2CCCO2)c1=O)c1ccc(F)cc1 (stereo not shown) [Compound 343]
Plant response rating, Johnsongrass [1, 18]: 0
Plant response rating, Johnsongrass [1, 19]: 0
Plant response rating, Johnsongrass [1, 20]: 20
Plant response rating, Johnsongrass [1, 21]: 20
Plant response rating, Johnsongrass ([1]; Rate 250 g/ha): 100
Plant response rating, Green foxtail ([2]; Rate 16 g/ha): 0
Plant response rating, Green foxtail ([2]; Rate 32 g/ha): 100
Plant response rating, Large crabgrass [3, 18]: 0
Plant response rating, Large crabgrass [3, 19]: 30
Plant response rating, Large crabgrass [3, 20]: 90
Plant response rating, Large crabgrass [3, 21]: 100
Plant response rating, Large crabgrass ([3]; Rate 250 g/ha): 100
Plant response rating, Com. groundsel [4, 18]: 0
Plant response rating, Com. groundsel [4, 19]: 40
Plant response rating, Com. groundsel [4, 20]: 100
Plant response rating, Com. groundsel [4, 21]: 100
Plant response rating, Com. groundsel ([4]; Rate 250 g/ha): 100
Plant response rating, Purple nutsedge [5, 18]: 0
Plant response rating, Purple nutsedge [5, 19]: 0
Purple nutsedge plant response rating [5, 20]: 0
Purple nutsedge plant response rating [5, 21]: 0
Plant response rating, Purple nutsedge ([5]; Rate 250 g/ha): 0
Green foxtail plant response rating ([6]; Rate 64 g/ha): 100
Green foxtail plant response rating ([6]; Rate 125 g/ha): 100
Plant response rating, Surinam grass [7, 18]: 0
Plant response rating, Surinam grass [7, 19]: 20
Surinam grass plant response rating [7, 20]: 20
Surinam grass plant response rating [7, 21]: 70
Plant response rating, Surinam grass ([7]; Rate 250 g/ha): 100
Plant response rating, Bermudagrass [8, 18]: 0
Plant response rating, Bermudagrass [8, 19]: 80
Plant response rating, Bermudagrass [8, 20]: 60
Plant response rating, Bermudagrass [8, 21]: 100
Plant response rating, Bermudagrass ([8]; Rate 250 g/ha): 100
Plant response rating, Tall Mallow [9, 18]: 0
Plant response rating, Tall Mallow [9, 19]: 0
Tall Mallow plant response rating [9, 20]: 0
Tall Mallow plant response rating [9, 21]: 0
Plant response rating, Tall Mallow ([9]; Rate 250 g/ha): 30
Plant response rating, Green foxtail ([10]; Rate 16 g/ha): 0
Plant response rating, Green foxtail ([10]; Rate 32 g/ha): 100
Plant response rating, Guineagrass [11, 18]: 0
Plant response rating, Guineagrass [11, 19]: 0
Guineagrass plant response rating [11, 20]: 80
Plant response rating, Guineagrass [11, 20]: 0
Plant response rating, Guineagrass [11, 21]: 50
Plant response rating, Guineagrass ([11]; Rate 250 g/ha): 100
Plant response rating, Goosegrass [12, 18]: 40
Plant response rating, Goosegrass [12, 19]: 80
Plant response rating, Goosegrass [12, 20]: 90
Plant response rating, Goosegrass [12, 21]: 90
Plant response rating, Goosegrass ([12]; Rate 250 g/ha): 100
Plant response rating, Spanishneedles [13, 18]: 0
Plant response rating, Spanishneedles [13, 19]: 0
Spanishneedles plant response rating [13, 20]: 0
Spanishneedles plant response rating [13, 21]: 0
Plant response rating, Spanishneedles ([13]; Rate 250 g/ha): 20
Plant response rating, Dallisgrass [14, 18]: 0
Plant response rating, Dallisgrass [14, 19]: 30
Plant response rating, Dallisgrass [14, 20]: 90
Plant response rating, Dallisgrass [14, 21]: 90
Plant response rating, Dallisgrass ([14]; Rate 250 g/ha): 100
Plant response rating, P. morninglory [15, 18]: 0
Plant response rating, P. morninglory [15, 19]: 0
Plant response rating, P. morninglory [15, 20]: 0
Plant response rating, P. morninglory [15, 21]: 0
Plant response rating, P. morninglory ([15]; Rate 250 g/ha): 0
Plant response rating, Green foxtail [16]: 100
Plant response rating, Itchgrass [17, 18]: 0
Plant response rating, Itchgrass [17, 19]: 0
Plant response rating, Itchgrass [17, 20]: 20
Plant response rating, Itchgrass [17, 21]: 20
Plant response rating, Itchgrass ([17]; Rate 250 g/ha): 30

COCC(C)n1c(=O)on(C(=O)N(c2ccc(F)cc2F)C(C)C)c1=O (stereo not shown) [Compound 357]
Plant response rating, Johnsongrass [1, 18]: 0
Plant response rating, Johnsongrass [1, 19]: 0
Plant response rating, Johnsongrass [1, 20]: 0
Plant response rating, Johnsongrass [1, 21]: 60
Plant response rating, Johnsongrass ([1]; Rate 250 g/ha): 90
Plant response rating, Green foxtail ([2]; Rate 16 g/ha): 10
Plant response rating, Green foxtail ([2]; Rate 32 g/ha): 30
Plant response rating, Large crabgrass [3, 18]: 100
Plant response rating, Large crabgrass [3, 19]: 100
Plant response rating, Large crabgrass [3, 20]: 100
Plant response rating, Large crabgrass [3, 21]: 100
Plant response rating, Large crabgrass ([3]; Rate 250 g/ha): 100
Plant response rating, Com. groundsel [4, 19]: 40
Plant response rating, Com. groundsel [4, 20]: 100
Plant response rating, Com. groundsel [4, 21]: 100
Plant response rating, Com. groundsel ([4]; Rate 250 g/ha): 100
Plant response rating, Purple nutsedge [5, 18]: 0
Plant response rating, Purple nutsedge [5, 19]: 0
Purple nutsedge plant response rating [5, 20]: 0
Purple nutsedge plant response rating [5, 21]: 0
Plant response rating, Purple nutsedge ([5]; Rate 250 g/ha): 50
Green foxtail plant response rating ([6]; Rate 64 g/ha): 100
Green foxtail plant response rating ([6]; Rate 125 g/ha): 100
Plant response rating, Surinam grass [7, 18]: 0
Plant response rating, Surinam grass [7, 19]: 20
Surinam grass plant response rating [7, 20]: 80
Surinam grass plant response rating [7, 21]: 100
Plant response rating, Surinam grass ([7]; Rate 250 g/ha): 100
Plant response rating, Bermudagrass [8, 18]: 90
Plant response rating, Bermudagrass [8, 19]: 100
Plant response rating, Bermudagrass [8, 20]: 100
Plant response rating, Bermudagrass [8, 21]: 100
Plant response rating, Bermudagrass ([8]; Rate 250 g/ha): 100
Plant response rating, Tall Mallow [9, 18]: 10
Plant response rating, Tall Mallow [9, 19]: 10
Tall Mallow plant response rating [9, 20]: 20
Tall Mallow plant response rating [9, 21]: 50
Plant response rating, Tall Mallow ([9]; Rate 250 g/ha): 100
Plant response rating, Green foxtail ([10]; Rate 16 g/ha): 10
Plant response rating, Green foxtail ([10]; Rate 32 g/ha): 30
Plant response rating, Guineagrass [11, 18]: 0
Plant response rating, Guineagrass [11, 19]: 0
Guineagrass plant response rating [11, 20]: 60
Plant response rating, Guineagrass [11, 20]: 20
Plant response rating, Guineagrass [11, 21]: 70
Plant response rating, Guineagrass ([11]; Rate 250 g/ha): 100
Plant response rating, Goosegrass [12, 18]: 90
Plant response rating, Goosegrass [12, 19]: 100
Plant response rating, Goosegrass [12, 20]: 100
Plant response rating, Goosegrass [12, 21]: 100
Plant response rating, Goosegrass ([12]; Rate 250 g/ha): 100
Plant response rating, Spanishneedles [13, 18]: 10
Plant response rating, Spanishneedles [13, 19]: 10
Spanishneedles plant response rating [13, 20]: 10
Spanishneedles plant response rating [13, 21]: 10
Plant response rating, Spanishneedles ([13]; Rate 250 g/ha): 20
Plant response rating, Dallisgrass [14, 18]: 0
Plant response rating, Dallisgrass [14, 19]: 20
Plant response rating, Dallisgrass [14, 20]: 100
Plant response rating, Dallisgrass [14, 21]: 100
Plant response rating, Dallisgrass ([14]; Rate 250 g/ha): 100
Plant response rating, P. morninglory [15, 18]: 0
Plant response rating, P. morninglory [15, 19]: 0
Plant response rating, P. morninglory [15, 20]: 0
Plant response rating, P. morninglory [15, 21]: 0
Plant response rating, P. morninglory ([15]; Rate 250 g/ha): 0
Plant response rating, Green foxtail [16]: 100
Plant response rating, Itchgrass [17, 18]: 0
Plant response rating, Itchgrass [17, 19]: 0
Plant response rating, Itchgrass [17, 20]: 0
Plant response rating, Itchgrass [17, 21]: 30
Plant response rating, Itchgrass ([17]; Rate 250 g/ha): 50

Source: patent US6737383B1, “Herbicidal oxadiazolidines” (priority 1999, dated 2004)
